Among the test systems are OVCAR-5; DU-145; A498; SNB-19; Hs-578T; K562; IGROV-1; OVCAR-3; SK-MEL-28; Malme-3M; CAKI-1; MOLT-4; A549; U-251; KM12; SF-295; HCT-116; MDA-MB-435; SK-OV-3.
Holding throughout (assay): inhibition of tumour cell growth, NCI panel, 48 h

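Interpolation was linear, between the two tested concentrations surrounding the appropriate level; five concentrations were tested over 48 hours in 96-well plates. GI50: concentration for 50% inhibition of growth.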 The source made the active and inactive calls. No stated cut-off is given here; in the data, active = GI50 up to about 1.1 µM and inactive = higher.

For `O=C(O)CSCC(=O)O`, the GI50 with OVCAR-5, in the assay on DU-145, in the assay on A498, in the assay on SNB-19, in the assay on Hs-578T and with K562 was > 100 µM (inactive) each time. The GI50 in the assay with IGROV-1, in the assay on OVCAR-3, in the assay with SK-MEL-28, with Malme-3M, in the assay with CAKI-1 and with MOLT-4 was > 100 µM (inactive) throughout. The GI50 with A549, in the assay with U-251, with KM12, in the assay with SF-295, in the assay on HCT-116 and with MDA-MB-435 was > 100 µM (inactive) in each case.
Consider `CCCCCCN1CCc2c(C)c(C#N)c3nc4ccccc4n3c21`, for which the GI50 in the assay on OVCAR-5 is > 100 µM (inactive); in the assay with DU-145, > 100 µM (inactive); with A498, 76.6 µM (inactive); in the assay with SNB-19, 80.4 µM (inactive); in the assay on Hs-578T, 8.73 µM (inactive); in the assay on K562, > 100 µM (inactive). Besides, the GI50 in the assay on IGROV-1 was > 100 µM (inactive); with OVCAR-3, 11.6 µM (inactive); with SK-MEL-28, 33.7 µM (inactive); in the assay with Malme-3M it was 83.2 µM (inactive); with A549 it was 50.2 µM (inactive); in the assay with U-251 it was 12.4 µM (inactive). The GI50 in the assay on SK-OV-3 was > 100 µM (inactive); in the assay on SF-295, > 100 µM (inactive); in the assay with HCT-116 it was 16.5 µM (inactive); in the assay with MDA-MB-435, 17 µM (inactive).
`C#CCCOC1(OC)N=NC(C)(C)O1` (configuration not stated): the GI50 in the assay on OVCAR-5, with DU-145, in the assay with A498, with SNB-19, in the assay with Hs-578T and in the assay on K562 was > 100 µM (inactive) in each case. In addition, the GI50 in the assay with IGROV-1, with OVCAR-3, in the assay with SK-MEL-28, with Malme-3M, in the assay with MOLT-4 and in the assay with A549 was > 100 µM (inactive) throughout. The GI50 in the assay with U-251, in the assay with KM12, with SF-295, with HCT-116 and in the assay on MDA-MB-435 was > 100 µM (inactive) throughout.
With `COc1cccc(/C=C/C2=NN(c3cccc(S(=O)(=O)O)c3)C3(C2)SCC(=O)N3c2nc3ccccc3s2)c1` (configuration not stated), the GI50 in the assay with OVCAR-5 was > 100 µM (inactive); with DU-145, 30.6 µM (inactive); with A498 it was 33 µM (inactive); in the assay on SNB-19, 52.5 µM (inactive); in the assay on Hs-578T it was 32.7 µM (inactive); in the assay with K562 it was 34.3 µM (inactive). The GI50 in the assay with IGROV-1 was 36.7 µM (inactive); in the assay with SK-MEL-28, > 100 µM (inactive); in the assay on Malme-3M it was 47 µM (inactive); with CAKI-1, 50.9 µM (inactive); in the assay with MOLT-4 it was 28.2 µM (inactive); with A549 it was 60.3 µM (inactive). In addition, the GI50 in the assay with U-251 is 30.5 µM (inactive); with KM12, 32 µM (inactive); with HCT-116 it was 62.7 µM (inactive); in the assay on MDA-MB-435, 24.4 µM (inactive).
For `CC1=CC=C2c3ccccc3C=CN2C(=O)C1`, the GI50 is > 100 µM (inactive) with OVCAR-5; 52 µM (inactive) with DU-145; 70.5 µM (inactive) with SNB-19; 35.6 µM (inactive) in the assay with Hs-578T; 37.8 µM (inactive) in the assay on K562; > 100 µM (inactive) with IGROV-1. For the same molecule, the GI50 in the assay on OVCAR-3 was 95.3 µM (inactive); with SK-MEL-28, 90.4 µM (inactive); with Malme-3M, > 100 µM (inactive); in the assay with CAKI-1 it was 56.5 µM (inactive); with MOLT-4 it was 25.6 µM (inactive); in the assay with A549, 41.3 µM (inactive). Also, the GI50 was 60.4 µM (inactive) in the assay on U-251; > 100 µM (inactive) in the assay with SK-OV-3; 36.3 µM (inactive) in the assay with KM12; > 100 µM (inactive) in the assay with SF-295; 40.8 µM (inactive) in the assay on HCT-116; 34.8 µM (inactive) in the assay with MDA-MB-435.
As for `O=C1c2ccccc2C2(c3ccc(Cl)cc3)N[C@@H]3CCCC[C@@H]3N12` (some centres not stated), the GI50 in the assay on OVCAR-5, in the assay on DU-145, with A498, with SNB-19, in the assay with Hs-578T and in the assay with K562 was > 100 µM (inactive) in each case. The GI50 with IGROV-1, in the assay with OVCAR-3, in the assay with SK-MEL-28, in the assay with CAKI-1, in the assay with MOLT-4 and in the assay with A549 was > 100 µM (inactive) in each case. The GI50 with U-251, in the assay on SK-OV-3, with KM12, in the assay on SF-295, with HCT-116 and in the assay on MDA-MB-435 was > 100 µM (inactive) throughout.
In the case of `O=C1CCN2C(=N1)Sc1ccccc12`, the GI50 with OVCAR-5, with DU-145, in the assay with SNB-19, with Hs-578T, in the assay with K562 and with IGROV-1 was > 100 µM (inactive) each time. The GI50 in the assay with OVCAR-3, in the assay with SK-MEL-28, with Malme-3M, in the assay with CAKI-1, in the assay with MOLT-4 and with A549 was > 100 µM (inactive) throughout. The GI50 in the assay on U-251, in the assay with SK-OV-3, in the assay with KM12, in the assay on SF-295, in the assay on HCT-116 and in the assay with MDA-MB-435 was > 100 µM (inactive) throughout.
On to `CN1C(=O)[C@H](c2c[nH]c3ccccc23)[C@H](c2c[nH]c3ccccc23)C1=O`, for which the GI50 with OVCAR-5 was > 41.6 µM (inactive); with DU-145 it was 48.3 µM (inactive); in the assay with SNB-19, 41.4 µM (inactive); with Hs-578T, 31.3 µM (inactive); in the assay on K562 it was 28.9 µM (inactive); in the assay on IGROV-1, 6.97 µM (inactive). For the same molecule, the GI50 with OVCAR-3 was 19.5 µM (inactive); with SK-MEL-28, 33.7 µM (inactive); in the assay on Malme-3M, 36.5 µM (inactive); with CAKI-1, 2.2 µM (inactive); in the assay with MOLT-4 it was 21.6 µM (inactive); in the assay with A549 it was 32.9 µM (inactive). Besides, the GI50 with U-251 was 35.4 µM (inactive); in the assay with SK-OV-3 it was 38.2 µM (inactive); in the assay with KM12, 36.1 µM (inactive); with SF-295 it was 26.1 µM (inactive); with HCT-116, 25.8 µM (inactive); with MDA-MB-435, 26.4 µM (inactive).
On to `O=C(/C=C\c1ccccc1)Oc1ccc(/C=C2\CCCCC2=O)cc1`, for which the GI50 was > 100 µM (inactive) in the assay with OVCAR-5; > 100 µM (inactive) in the assay on DU-145; > 100 µM (inactive) with A498; > 100 µM (inactive) in the assay with SNB-19; 61 µM (inactive) with Hs-578T; 37.8 µM (inactive) in the assay on IGROV-1. Besides, the GI50 was 72.3 µM (inactive) with OVCAR-3; 2.18 µM (inactive) with SK-MEL-28; 38.9 µM (inactive) in the assay with Malme-3M; 24.3 µM (inactive) in the assay with CAKI-1; 0.955 µM (active) in the assay with MOLT-4; 46.6 µM (inactive) in the assay on A549. Moreover, the GI50 in the assay on U-251 was 30.4 µM (inactive); in the assay with KM12, 44 µM (inactive); in the assay with SF-295, 41.2 µM (inactive); in the assay with HCT-116, 26.1 µM (inactive); in the assay on MDA-MB-435, 26.8 µM (inactive).
Turning to `CC[C@@H](/C=C\CCC(=O)C[C@H](O)CCC=C(C)C)O[Si](C(C)C)(C(C)C)C(C)C`, the GI50 is > 100 µM (inactive) with OVCAR-5; > 100 µM (inactive) in the assay on DU-145; > 100 µM (inactive) in the assay on A498; > 100 µM (inactive) in the assay on SNB-19; > 100 µM (inactive) in the assay with Hs-578T; 54.5 µM (inactive) in the assay with K562. Moreover, the GI50 was > 100 µM (inactive) in the assay with IGROV-1; > 100 µM (inactive) in the assay with OVCAR-3; > 100 µM (inactive) in the assay with SK-MEL-28; > 100 µM (inactive) in the assay on CAKI-1; > 100 µM (inactive) in the assay with MOLT-4; 73.3 µM (inactive) in the assay with A549. The GI50 in the assay with U-251, with SK-OV-3, in the assay on KM12, with SF-295, in the assay with HCT-116 and with MDA-MB-435 was > 100 µM (inactive) in each case.
For the molecule `N=C(N)N/N=C/c1c(-c2cc([N+](=O)[O-])c(Cl)cc2Cl)nc2n1CCS2`, the GI50 in the assay with OVCAR-5 is 79.3 µM (inactive); in the assay with DU-145, 27.6 µM (inactive); with A498 it was 77.3 µM (inactive); in the assay with SNB-19 it was 3.87 µM (inactive); in the assay with Hs-578T it was 27.9 µM (inactive); in the assay with K562 it was 2.88 µM (inactive). The GI50 with IGROV-1 is 16.4 µM (inactive); in the assay with OVCAR-3, 8.04 µM (inactive); in the assay with SK-MEL-28 it was 5.16 µM (inactive); in the assay with Malme-3M, 24.5 µM (inactive); in the assay on CAKI-1 it was 40 µM (inactive); with MOLT-4 it was 6.79 µM (inactive). The GI50 was 32.7 µM (inactive) in the assay with A549; 3.21 µM (inactive) with U-251; 4.83 µM (inactive) in the assay with KM12; 25.6 µM (inactive) in the assay on SF-295; 5.01 µM (inactive) in the assay on HCT-116; 9.38 µM (inactive) in the assay with MDA-MB-435.

(Values after ChEMBL document CHEMBL1201862, “PubChem BioAssay data set” (2004).)
